Patent publication US20230212121A1 (DAEGU-GYEONGBUK MEDICAL INNOVATION FOUNDATION, priority 2020, published 2023)

Assays:
Assay type in all cases: cell-based
[1] = target: T1, dopamine transporter (DAT) (Homo sapiens, UniProt Q01959); experiment: Dopamine reuptake inhibition, [3H]-DA, HEK-293 cells transfected with dopamine transporter cDNA; details: for Triple reuptake inhibition (Ratio %) DAT: compound 1 μM, 20-30 nM [3H]-DA, relative to control without compound = 100%, lower value = more inhibition; for IC50: concentration at which Ratio % is 50%, 6 concentrations 1 nM to 1 μM, read-out: Triple reuptake inhibition (IC50, μM) DAT
T1 construct: expressed in transfected cells; host or cells: HEK-293
Procedure: (§1) In order to evaluate the reuptake inhibitory effect of the compounds of the Examples according to the present invention on serotonin, norepinephrine and dopamine, the experiments below were performed, and the results are shown in Table 17.
(§2) To evaluate the reuptake inhibition effect on dopamine, the dopamine transporter cDNA was transfected using the HEK-293 cell line, and then sub-seeded in a 24 well plate the next day. After removing the medium, each compound of the Examples or Comparative Examples diluted to 1 μM in uptake buffer was added to a concentration of 200 μl/well and cultured at 37° C. for 15 minutes. 100 μl of uptake buffer containing 20-30 nM [3H]-DA was added and cultured at 37° C. for 5 minutes. The reaction solution was quickly removed and washed three times with 1 ml ice-cold uptake buffer. After dissolving the resultant in 1% SDS (0.5 ml), the degree of binding of radioisotope-labeled dopamine to the transporter was measured.
(§3) In addition, when evaluating the reuptake inhibitory effect on dopamine, norepinephrine, and serotonin, the same method was performed without treating each compound of the Examples or Comparative Examples as a control, the degree of binding of radioisotope-labeled dopamine, norepinephrine, and serotonin to the transporter was measured, and by using this as a reference (100%), the triple reuptake inhibitory effect was evaluated as a relative ratio (Ratio %). That is, in the control group, the binding of dopamine, norepinephrine, and serotonin to transporters is not inhibited, but when each compound of the Examples is treated and thus the binding is inhibited, the Ratio % value decreases.
(§4) Meanwhile, the Ratio % values were compared, and in the case of the compounds of Examples 6, 10, 13, 14, 17, 20, 21, 22, 30, 31, 32, 34, 36, 38, 39, 40, 54, 55, 56, 57, 58 and 73 with excellent reuptake inhibitory effects on dopamine, norepinephrine and serotonin, the concentration at which the Ratio % is 50% was calculated using a total of 6 concentrations (1 nM, 5 nM, 10 nM, 50 nM, 100 nM, and 1 μM) and expressed as IC50.

[2] = target: T2, norepinephrine transporter (NET) (Homo sapiens, UniProt P23975); experiment: Norepinephrine reuptake inhibition, [3H]-NE, HEK-293 cells transfected with NE transporter cDNA; details: for Triple reuptake inhibition (Ratio %) NET: compound 1 μM, [3H]-NE, relative to control without compound = 100%, lower value = more inhibition; for IC50: concentration at which Ratio % is 50%, 6 concentrations 1 nM to 1 μM, read-out: Triple reuptake inhibition (IC50, μM) NET
T2 construct: expressed in transfected cells; host or cells: HEK-293
Procedure: as §1, §2
(§5) For norepinephrine (NE) and serotonin (5-HT), the degree of binding of radioisotope-labeled norepinephrine or serotonin to the transporter was measured in the same manner as above, except that cells transfected with NE or 5-HT transporter cDNA were used and [3H]—NE or [3H]-5-HT was used as a substrate.
as §3, §4

[3] = target: T3, serotonin transporter (SERT) (Homo sapiens, UniProt P31645); experiment: Serotonin reuptake inhibition, [3H]-5-HT, HEK-293 cells transfected with 5-HT transporter cDNA; details: for Triple reuptake inhibition (Ratio %) SERT: compound 1 μM, [3H]-5-HT, relative to control without compound = 100%, lower value = more inhibition; for IC50: concentration at which Ratio % is 50%, 6 concentrations 1 nM to 1 μM, read-out: Triple reuptake inhibition (IC50, μM) SERT
T3 construct: expressed in transfected cells; host or cells: HEK-293
Procedure: as §1, §2, §5, §3, §4

T2 sequence (P23975 whole entry, species assumed): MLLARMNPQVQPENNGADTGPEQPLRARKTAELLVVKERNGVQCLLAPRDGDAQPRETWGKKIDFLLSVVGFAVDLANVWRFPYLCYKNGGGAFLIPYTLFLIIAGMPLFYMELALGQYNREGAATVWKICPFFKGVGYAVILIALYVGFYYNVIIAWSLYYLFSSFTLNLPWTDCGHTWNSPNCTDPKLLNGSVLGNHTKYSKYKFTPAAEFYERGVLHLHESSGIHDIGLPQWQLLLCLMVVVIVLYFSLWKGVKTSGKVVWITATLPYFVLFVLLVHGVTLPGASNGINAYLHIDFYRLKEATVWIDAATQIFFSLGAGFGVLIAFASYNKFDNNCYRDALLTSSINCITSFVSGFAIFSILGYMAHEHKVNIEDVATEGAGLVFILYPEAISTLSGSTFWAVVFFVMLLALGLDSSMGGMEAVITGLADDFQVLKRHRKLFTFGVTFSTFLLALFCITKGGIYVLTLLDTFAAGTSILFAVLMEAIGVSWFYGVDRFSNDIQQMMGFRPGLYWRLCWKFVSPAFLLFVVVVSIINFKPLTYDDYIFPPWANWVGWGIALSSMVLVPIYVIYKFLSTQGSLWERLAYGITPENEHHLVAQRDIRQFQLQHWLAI
T3 sequence (P31645 whole entry, species assumed): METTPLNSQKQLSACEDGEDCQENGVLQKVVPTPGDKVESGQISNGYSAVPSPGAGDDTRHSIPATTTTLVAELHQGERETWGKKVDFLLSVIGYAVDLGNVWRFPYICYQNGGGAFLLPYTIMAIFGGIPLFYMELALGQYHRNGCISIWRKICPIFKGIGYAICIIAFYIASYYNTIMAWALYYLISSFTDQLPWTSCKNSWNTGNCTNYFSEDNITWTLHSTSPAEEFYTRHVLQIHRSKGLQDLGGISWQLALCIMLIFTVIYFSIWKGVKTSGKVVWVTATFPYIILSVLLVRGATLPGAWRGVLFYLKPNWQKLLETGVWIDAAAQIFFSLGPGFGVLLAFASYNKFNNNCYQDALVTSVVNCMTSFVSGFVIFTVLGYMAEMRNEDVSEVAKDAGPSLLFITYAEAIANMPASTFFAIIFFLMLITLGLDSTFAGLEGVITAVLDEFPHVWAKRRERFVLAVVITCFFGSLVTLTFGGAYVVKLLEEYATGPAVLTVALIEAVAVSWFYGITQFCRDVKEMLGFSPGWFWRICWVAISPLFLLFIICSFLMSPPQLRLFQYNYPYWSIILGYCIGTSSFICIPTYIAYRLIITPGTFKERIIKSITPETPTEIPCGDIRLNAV
T1 sequence (Q01959 whole entry, species assumed): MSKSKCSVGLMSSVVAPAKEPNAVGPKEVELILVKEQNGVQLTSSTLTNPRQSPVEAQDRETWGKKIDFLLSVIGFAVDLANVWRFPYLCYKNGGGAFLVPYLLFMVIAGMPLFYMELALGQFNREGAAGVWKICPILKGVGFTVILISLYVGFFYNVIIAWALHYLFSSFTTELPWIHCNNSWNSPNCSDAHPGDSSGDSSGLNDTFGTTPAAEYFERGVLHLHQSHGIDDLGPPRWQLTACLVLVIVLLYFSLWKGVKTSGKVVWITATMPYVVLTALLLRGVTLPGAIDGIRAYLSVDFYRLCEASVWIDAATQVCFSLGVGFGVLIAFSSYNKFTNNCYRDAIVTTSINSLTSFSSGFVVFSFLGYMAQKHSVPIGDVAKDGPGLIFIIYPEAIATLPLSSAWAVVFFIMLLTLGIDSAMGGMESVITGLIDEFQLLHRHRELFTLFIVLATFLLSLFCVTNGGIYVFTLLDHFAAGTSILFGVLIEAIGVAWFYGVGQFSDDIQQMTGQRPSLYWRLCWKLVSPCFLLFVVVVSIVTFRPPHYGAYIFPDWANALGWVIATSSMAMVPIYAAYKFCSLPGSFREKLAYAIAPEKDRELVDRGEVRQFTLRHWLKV

SMILES	Triple reuptake inhibition (Ratio %) DAT [1] [%]	Triple reuptake inhibition (Ratio %) NET [2] [%]	Triple reuptake inhibition (Ratio %) SERT [3] [%]	IC50 [1] [µM]	IC50 [2] [µM]	IC50 [3] [µM]
CCCCOc1ccc(S(=O)(=O)NCCCN2CCC(Cc3ccccc3)CC2)nc1 [Example 35, N-(3-(4-benzylpiperidinyl)propyl)-5-butoxypyridin-2-sulfonamide]	16.12	51.99	53.08	–	–	–
O=S(=O)(NCCN1CCC(Cc2ccccc2)CC1)c1cc2ccccc2[nH]1 [Example 36, N-(2-(4-benzylpiperidin-1-yl)ethyl)-1H-indol-2-sulfonamide]	30.48	79.12	72.85	0.843	–	–
O=S(=O)(NCCN1CCC(Cc2ccccc2)CC1)c1ccc2ccccc2c1 [Example 38, N-(2-(4-benzylpiperidin-1-yl)ethyl) naphthalen-2-sulfonamide]	56.59	21.54	34.20	0.493	–	–
O=S(=O)(NCCN1CCC(Cc2ccccc2)CC1)c1cccc2ccccc12 [Example 39, N-(2-(4-benzylpiperidin-1-yl)ethyl)naphthalen-1-sulfonamide]	31.26	18.46	15.77	1.16	–	–
O=S(=O)(NCCN1CCC(Cc2ccccc2)CC1)c1ccc(-c2ccccc2)cc1 [Example 40, N-(2-(4-benzylpiperidin-1-yl)ethyl)-[1,1′-biphenyl]-4-sulfonamide]	41.80	33.45	33.23	3.92	1.05	3.08
O=S(=O)(NCCN1CCC(Cc2ccccc2)CC1)c1ccc2ccccc2n1 [Example 41, N-(2-(4-benzylpiperidin-1-yl)ethyl)quinolin-2-sulfonamide]	80.21	34.97	64.15	–	–	–
O=S(=O)(NCCN1CCC(c2ccccc2)CC1)c1ccc2ccccc2c1 [Example 42, N-(2-(4-phenylpiperidin-1-yl)ethyl)naphthalen-2-sulfonamide]	80.21	34.97	64.15	–	–	–
O=S(=O)(NCCN1CCC(c2ccccc2)CC1)c1cccc2ccccc12 [Example 43, N-(2-(4-phenylpiperidin-1-yl)ethyl)naphthalen-1-sulfonamide]	80.21	34.97	64.15	–	–	–
O=S(=O)(NCCN1CCC(c2ccccc2)CC1)c1ccc(-c2ccccc2)cc1 [Example 44, N-(2-(4-phenylpiperidin-1-yl)ethyl)-[1,1′-biphenyl]-4-sulfonamide]	37.93	14.04	15.55	–	–	–
O=S(=O)(NCCN1CCC(c2ccccc2)CC1)c1ccc2ccccc2n1 [Example 45, N-(2-(4-phenylpiperidin-1-yl)ethyl)quinolin-2-sulfonamide]	89.88	45.04	56.73	–	–	–
O=S(=O)(NCCN1CCN(Cc2ccccc2)CC1)c1ccc2ccccc2c1 [Example 46, N-(2-(4-benzylpiperazin-1-yl)ethyl)naphthalen-2-sulfonamide]	83.08	87.27	49.64	–	–	–
O=S(=O)(NCCN1CCN(Cc2ccccc2)CC1)c1cccc2ccccc12 [Example 47, N-(2-(4-benzylpiperazin-1-yl)ethyl)naphthalen-1-sulfonamide]	83.08	87.27	49.64	–	–	–
O=S(=O)(NCCN1CCN(c2ccc(Cl)cc2)CC1)c1ccc2ccccc2c1 [Example 50, N-(2-(4-(4-chlorophenyl)piperazinyl)ethyl)naphthalen-2-sulfonamide]	86.50	87.27	45.16	–	–	–
O=S(=O)(NCCN1CCN(c2ccc(Cl)cc2)CC1)c1cccc2ccccc12 [Example 51, N-(2-(4-(4-chlorophenyl)piperazinyl)ethyl)naphthalen-1-sulfonamide]	68.53	64.45	47.19	–	–	–
O=S(=O)(NCCN1CCN(c2ccc(Cl)cc2)CC1)c1ccc(-c2ccccc2)cc1 [Example 52, N-(2-(4-(4-chlorophenyl)piperazin-1-yl)ethyl)-[1,1′-biphenyl]-4-sulfonamide]	68.53	64.45	47.19	–	–	–
O=S(=O)(NCCN1CCN(c2ccc(Cl)cc2)CC1)c1ccc2ccccc2n1 [Example 53, N-(2-(4-(4-chlorophenyl)piperazinyl)ethyl)quinolin-2-sulfonamide]	68.53	64.45	47.19	–	–	–
O=S(=O)(NCCCN1CCC(Cc2ccccc2)CC1)c1ccc2ccccc2c1 [Example 54, N-(3-(4-benzylpiperidin-1-yl)propyl)naphthalen-2-sulfonamide]	45.75	36.68	46.95	0.948	1.25	1.94
O=S(=O)(NCCCN1CCC(Cc2ccccc2)CC1)c1cccc2ccccc12 [Example 55, N-(3-(4-benzylpiperidin-1-yl)propyl)naphthalen-1-sulfonamide]	35.21	31.83	46.18	1.55	1.3	1.45
O=S(=O)(NCCCN1CCC(Cc2ccccc2)CC1)c1ccc(-c2ccccc2)cc1 [Example 56, N-(3-(4-benzylpiperidin-1-yl)propyl)-[1,1′-biphenyl]-4-sulfonamide]	61.90	68.65	56.50	0.42	0.641	0.75
O=S(=O)(NCCCN1CCC(Cc2ccccc2)CC1)c1ccc2ccccc2n1 [Example 57, N-(3-(4-benzylpiperidin-1-yl)propyl)quinolin-2-sulfonamide]	13.09	30.54	53.66	4.48	1.35	0.345
O=S(=O)(NCCCN1CCC(Cc2ccccc2)CC1)c1ccc(-c2ccc(F)cc2)cc1 [Example 58, N-(3-(4-benzylpiperidin-1-yl)propyl)-4′-fluoro-[1,1′-biphenyl]-4-sulfonamide]	55.51	44.79	50.76	0.647	0.429	1.84
O=S(=O)(NCCCN1CCC(Cc2ccccc2)CC1)c1ccc(-c2ccc(Cl)cc2)cc1 [Example 59, N-(3-(4-benzylpiperidin-1-yl)propyl)-4′-chloro-[1,1′-biphenyl]-4-sulfonamide]	15.16	44.79	29.78	–	–	–
Cc1ccc(-c2ccc(S(=O)(=O)NCCCN3CCC(Cc4ccccc4)CC3)cc2)cc1 [Example 60, N-(3-(4-benzylpiperidin-1-yl)propyl)-4′-methyl-[1,1′-biphenyl]-4-sulfonamide]	9.15	44.79	17.76	–	–	–
